Test results reported in patent US9815796B2 (Merck Sharp & Dohme Corp., priority 2013, dated 2017).

The molecules below were run against human PDE2A1 (Homo sapiens (Human), UniProt O00408) (assay: IMAP FP PDE selectivity panel, human PDE2A1). Conditions: Human PDE2, Lab B; read-out: Human PDE2 Ki (nM) - Lab B.
Format: biochemical
Procedure, shortened: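 IMAP FP format: substrate 50 nM FAM-cAMP plus 1000 nM cGMP, enzyme (insect-cell GST-tagged human PDE2A1) at ~20% conversion, 60 min reaction at room temperature. Apparent inhibition constants calculated from parallel/perpendicular fluorescence with KM 10,000 nM.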

Sequence of human PDE2A1 (O00408 other isoform, or with tags, fused parts or gaps): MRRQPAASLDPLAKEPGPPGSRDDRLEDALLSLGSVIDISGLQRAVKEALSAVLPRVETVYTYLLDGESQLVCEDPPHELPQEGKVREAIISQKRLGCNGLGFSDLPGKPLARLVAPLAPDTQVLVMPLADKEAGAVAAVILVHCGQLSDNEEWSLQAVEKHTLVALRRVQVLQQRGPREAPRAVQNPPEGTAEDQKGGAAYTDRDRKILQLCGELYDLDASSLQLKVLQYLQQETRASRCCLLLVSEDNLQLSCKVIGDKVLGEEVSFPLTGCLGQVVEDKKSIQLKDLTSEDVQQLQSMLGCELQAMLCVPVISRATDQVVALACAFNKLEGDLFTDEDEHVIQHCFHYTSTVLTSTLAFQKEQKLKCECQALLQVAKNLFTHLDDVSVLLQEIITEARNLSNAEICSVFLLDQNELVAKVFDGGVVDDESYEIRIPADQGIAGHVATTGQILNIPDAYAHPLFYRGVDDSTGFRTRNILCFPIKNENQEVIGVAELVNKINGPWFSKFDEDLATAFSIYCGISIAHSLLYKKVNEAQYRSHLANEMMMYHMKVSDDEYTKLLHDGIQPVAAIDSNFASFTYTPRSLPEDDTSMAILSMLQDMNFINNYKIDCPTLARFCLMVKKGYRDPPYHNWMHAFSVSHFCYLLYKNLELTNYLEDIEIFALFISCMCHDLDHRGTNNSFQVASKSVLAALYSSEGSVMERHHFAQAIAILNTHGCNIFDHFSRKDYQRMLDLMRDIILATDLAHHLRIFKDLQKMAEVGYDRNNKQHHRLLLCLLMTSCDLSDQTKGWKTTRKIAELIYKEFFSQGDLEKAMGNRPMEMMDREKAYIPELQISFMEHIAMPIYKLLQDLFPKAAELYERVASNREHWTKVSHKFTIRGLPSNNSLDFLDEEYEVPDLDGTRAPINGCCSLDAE

**Q.** How did the Ki turn out when `CCC(C)(NC(=O)c1cc(=O)[nH]c(C)n1)c1ccc(C(F)(F)F)cc1` (single isomer, unassigned) [Example 669, (R)- or (S)-2-methyl-N-{1-methyl-1-[4-(trifluoromethyl)phenyl]propyl}-6-oxo-1,6-dihydropyrimidine-4-carboxamide] was run?
**A.** 15 nM

**Q.** For `Cc1nc(C(=O)N[C@@H](c2ccc3c(c2)OC(F)(F)O3)C(C)C)cc(=O)[nH]1` [Example 607, N-[(1R)-1-(2,2-difluoro-1,3-benzodioxol-5-yl)-2-methylpropyl]-2-methyl-6-oxo-1,6-dihydropyrimidine-4-carboxamide], which Ki is on record?
**A.** 48 nM

**Q.** With `Cc1nc(C(=O)N[C@](C)(CO)c2ccc(C(F)(F)F)cc2)cc(=O)[nH]1` [Example 636, N-{(1S)-2-hydroxy-1-methyl-1-[4-(trifluoromethyl)phenyl]ethyl}-2-methyl-6-oxo-1,6-dihydropyrimidine-4-carboxamide] as the molecule, how does the Ki read?
**A.** 19 nM

**Q.** For `CC(C)c1ccc([C@H](NC(=O)c2cc(=O)[nH]c(-c3ccccc3)n2)C2(C)CC2)cc1` [Example 547, N-{(R)-(1-methylcyclopropyl)[4-(1-methylethyl)phenyl]methyl}-6-oxo-2-phenyl-1,6-dihydropyrimidine-4-carboxamide], which Ki is on record?
**A.** 1.8 nM

**Q.** `Cc1nc(C(=O)NC2(c3ccc(C(F)(F)F)cc3)CC2(C)C)cc(=O)[nH]1` (centres unmarked) [Example 681, N-(2,2-dimethyl-1-(4-(trifluoromethyl)phenyl)cyclopropyl)-2-methyl-6-oxo-1,6-dihydropyrimidine-4-carboxamide] was tested. Which Ki did it give?
**A.** 7 nM

**Q.** With `CC(C)(C)[C@@H](NC(=O)c1cc(=O)[nH]c(-c2ccccc2)n1)c1ccc(C2CC2)cc1` [Example 536, N-[(1R)-1-(4-cyclopropylphenyl)-2,2-dimethylpropyl]-6-oxo-2-phenyl-1,6-dihydropyrimidine-4-carboxamide] as the molecule, how does the Ki read?
**A.** 0.51 nM

**Q.** With `CC(C)(C)[C@@H](NC(=O)c1cc(=O)[nH]c(-c2ccccc2)n1)c1ccc(C(F)(F)F)cc1F` [Example 545, N-{(1R)-1-[2-fluoro-4-(trifluoromethyl)phenyl]-2,2-dimethylpropyl}-6-oxo-2-phenyl-1,6-dihydropyrimidine-4-carboxamide] as the molecule, how does the Ki read?
**A.** 1.2 nM

**Q.** For `Cc1nc(C(=O)NC(C)c2ccc(C(F)(F)C(F)(F)F)cc2)cc(=O)[nH]1` (single isomer, unassigned) [Example 684, (S)- or (R)-2-methyl-6-oxo-N-(1-(4-(perfluoroethyl)phenyl)ethyl)-1,6-dihydropyrimidine-4-carboxamide], which Ki is on record?
**A.** > 2960 nM

**Q.** How did the Ki turn out when `CC(NC(=O)c1cc(=O)[nH]c(-c2ccccc2)n1)c1ccc(C(C)(C)C(F)(F)F)cc1` (single isomer, unassigned) [Example 699, (R)- or (S)-6-oxo-2-phenyl-N-(1-(4-(1,1,1-trifluoro-2-methylpropan-2-yl)phenyl)ethyl)-1,6-dihydropyrimidine-4-carboxamide] was run?
**A.** 103 nM

**Q.** Which Ki does the source give for `Cc1nc(C(=O)NC(C)(C)c2cc(F)c(C(F)(F)F)cc2Cl)cc(=O)[nH]1` [Example 659, N-{1-[2-chloro-5-fluoro-4-(trifluoromethyl)phenyl]-1-methylethyl}-2-methyl-6-oxo-1,6-dihydropyrimidine-4-carboxamide] here?
**A.** 139 nM

**Q.** `Cc1nc(C(=O)N[C@H](C)c2ccc(C(F)F)cc2)cc(=O)[nH]1` [Example 656, N-{(1R)-1-[4-(difluoromethyl)phenyl]ethyl}-2-methyl-6-oxo-1,6-dihydropyrimidine-4-carboxamide] was tested. Which Ki did it give?
**A.** 111 nM

**Q.** With `Cc1nc(C(=O)NC2(c3ccc(OC(C)(C)C)cc3)CC2)cc(=O)[nH]1` [Example 626, N-[1-(4-tert-butoxyphenyl)cyclopropyl]-2-methyl-6-oxo-1,6-dihydropyrimidine-4-carboxamide] as the molecule, how does the Ki read?
**A.** 58 nM

**Q.** For `COc1cc(C(F)(F)F)ccc1C(C)(C)NC(=O)c1cc(=O)[nH]c(-c2ncccn2)n1` [Example 572, N-{1-[2-methoxy-4-(trifluoromethyl)phenyl]-1-methylethyl}-6-oxo-1,6-dihydro-2,2′-bipyrimidine-4-carboxamide], which Ki is on record?
**A.** 741 nM

**Q.** With `O=C(N[C@@H](c1ccc(OC(F)F)cc1)C1CC1)c1cc(=O)[nH]c(-c2ncccn2)n1` [Example 559, N-{(R)-cyclopropyl[4-(difluoromethoxy)phenyl]methyl}-6-oxo-1,6-dihydro-2,2′-bipyrimidine-4-carboxamide] as the molecule, how does the Ki read?
**A.** 128 nM

**Q.** For `CC[C@@H](NC(=O)c1cc(=O)[nH]c(-c2ncccn2)n1)c1ccc2c(c1)OC(F)(F)O2` [Example 590, N-[(1R)-1-(2,2-difluoro-1,3-benzodioxol-5-yl)propyl]-6-oxo-1,6-dihydro-2,2′-bipyrimidine-4-carboxamide], which Ki is on record?
**A.** 34 nM

**Q.** With `CC(C)[C@@H](NC(=O)c1cc(=O)[nH]c(-c2ncccn2)n1)c1ccc(C2CC2)c(F)c1` [Example 560, N-[(1R)-1-(4-cyclopropyl-3-fluorophenyl)-2-methylpropyl]-6-oxo-1,6-dihydro-2,2′-bipyrimidine-4-carboxamide] as the molecule, how does the Ki read?
**A.** 5.1 nM

**Q.** `Cc1nc(C(=O)N[C@]2(c3ccc(C(F)(F)F)cc3)C[C@@H]2C)cc(=O)[nH]1` (single isomer, unassigned) [Example 670, 2-methyl-N-{2-methyl-1-[4-(trifluoromethyl)phenyl]cyclopropyl}-6-oxo-1,6-dihydropyrimidine-4-carboxamide] was tested. Which Ki did it give?
**A.** 28 nM

**Q.** With `CC(NC(=O)c1cc(=O)[nH]c(-c2ncccn2)n1)c1ccc(C2(C(F)(F)F)CC2)cc1` (single isomer, unassigned) [Example 693, (R)- or (S)-6-oxo-2-(pyrimidin-2-yl)-N-(1-(4-(1-(trifluoromethyl)cyclopropyl)phenyl)-ethyl)-1,6-dihydropyrimidine-4-carboxamide] as the molecule, how does the Ki read?
**A.** 63 nM

**Q.** With `Cc1nc(C(=O)N[C@@H](c2ccc(C(F)F)c(F)c2)C2CC2)cc(=O)[nH]1` [Example 651, N-{(R)-cyclopropyl[4-(difluoromethyl)-3-fluorophenyl]methyl}-2-methyl-6-oxo-1,6-dihydropyrimidine-4-carboxamide] as the molecule, how does the Ki read?
**A.** 109 nM

**Q.** How did the Ki turn out when `O=C(N[C@@H](c1ccc(C2CC2)c(F)c1)C1CC1)c1cc(=O)[nH]c(-c2ccccc2)n1` [Example 546, N-[(R)-cyclopropyl(4-cyclopropyl-3-fluorophenyl)methyl]-6-oxo-2-phenyl-1,6-dihydropyrimidine-4-carboxamide] was run?
**A.** 3.8 nM

**Q.** `CC1(c2ccc(C(NC(=O)c3cc(=O)[nH]c(C4CC4)n3)C(C)(C)C)cc2F)CC1` (single isomer, unassigned) [Example 712, (S)- or (R)-2-cyclopropyl-N-(1-(3-fluoro-4-(1-methylcyclopropyl)phenyl)-2,2-dimethylpropyl)-6-oxo-1,6-dihydropyrimidine-4-carboxamide] was tested. Which Ki did it give?
**A.** 237 nM

**Q.** How did the Ki turn out when `CCc1nc(C(=O)NC(C)(C)c2ccc(C(F)(F)F)cc2)cc(=O)[nH]1` [Example 600, 2-ethyl-N-{1-methyl-1-[4-(trifluoromethyl)phenyl]ethyl}-6-oxo-1,6-dihydropyrimidine-4-carboxamide] was run?
**A.** 21 nM

**Q.** `Cc1nc(C(=O)N[C@@H](c2ccc(OC(F)F)c(F)c2)C2CC2)cc(=O)[nH]1` [Example 629, N-{(R)-cyclopropyl[4-(difluoromethoxy)-3-fluorophenyl]methyl]-2-methyl-6-oxo-1,6-dihydropyrimidine-4-carboxamide] was tested. Which Ki did it give?
**A.** 53 nM

**Q.** Which Ki does the source give for `Cc1cc(C(F)(F)F)ccc1C(C)(C)NC(=O)c1cc(=O)[nH]c(-c2ncccn2)n1` [Example 569, N-{1-methyl-1-[2-methyl-4-(trifluoromethyl)phenyl]ethyl}-6-oxo-1,6-dihydro-2,2′-bipyrimidine-4-carboxamide] here?
**A.** 139 nM

**Q.** How did the Ki turn out when `Cc1nc(C(=O)N[C@@H](c2ccc(C(F)F)cc2)C(C)(C)C)cc(=O)[nH]1` [Example 644, N-{(1R)-1-[4-(difluoromethyl)phenyl]-2,2-dimethylpropyl}-2-methyl-6-oxo-1,6-dihydropyrimidine-4-carboxamide] was run?
**A.** 7.3 nM

**Q.** With `CC1(c2ccc(C(NC(=O)c3cc(=O)[nH]c(-c4ncccn4)n3)C(C)(C)C)cc2F)CC1` (single isomer, unassigned) [Example 716, (S)- or (R)-N-(1-(3-fluoro-4-(1-methylcyclopropyl)phenyl)-2,2-dimethylpropyl)-6-oxo-1,6-dihydro-[2,2′-bipyrimidine]-4-carboxamide] as the molecule, how does the Ki read?
**A.** > 2960 nM

**Q.** With `Cc1nc(C(=O)N[C@H](C)c2ccc(C(F)F)c(F)c2)cc(=O)[nH]1` [Example 657, N-{(1R)-1-[4-(difluoromethyl)-3-fluorophenyl]ethyl}-2-methyl-6-oxo-1,6-dihydropyrimidine-4-carboxamide] as the molecule, how does the Ki read?
**A.** 133 nM

**Q.** Which Ki does the source give for `Cc1nc(C(=O)N[C@@H](c2ccc(C3CC3)cc2)C2(C)CC2)cc(=O)[nH]1` [Example 658, N-[(R)-(4-cyclopropylphenyl)(1-methylcyclopropyl)methyl]-2-methyl-6-oxo-1,6-dihydropyrimidine-4-carboxamide] here?
**A.** 3.8 nM

**Q.** With `Cc1nc(C(=O)NC(C)(C)c2ccc(C(F)F)c(F)c2)cc(=O)[nH]1` [Example 654, N-{1-[4-(difluoromethyl)-3-fluorophenyl]-1-methylethyl}-2-methyl-6-oxo-1,6-dihydropyrimidine-4-carboxamide] as the molecule, how does the Ki read?
**A.** 72 nM

**Q.** For `CC(C)(C)[C@@H](NC(=O)c1cc(=O)[nH]c(-c2ccccc2)n1)c1ccc(C(F)(F)F)c(F)c1` [Example 538, N-{(1R)-1-[3-fluoro-4-(trifluoromethyl)phenyl]-2,2-dimethylpropyl}-6-oxo-2-phenyl-1,6-dihydropyrimidine-4-caboxamide], which Ki is on record?
**A.** 1.4 nM

**Q.** For `CC1([C@@H](NC(=O)c2cc(=O)[nH]c(-c3ccccc3)n2)c2ccc(OC(F)F)cc2)CC1` [Example 548, N-[(R)-[4-(difluoromethoxy)phenyl](1-methylcyclopropyl)methyl]-6-oxo-2-phenyl-1,6-dihydropyrimidine-4-carboxamide], which Ki is on record?
**A.** 4.5 nM

**Q.** Which Ki does the source give for `CC(NC(=O)c1cc(=O)[nH]c(-c2ncccn2)n1)c1ccc(C2(C(F)(F)F)CC2)cc1` (single isomer, unassigned) [Example 692, (S)- or (R)-6-oxo-2-(pyrimidin-2-yl)-N-(1-(4-(1-(trifluoromethyl)cyclopropyl)phenyl)-ethyl)-1,6-dihydropyrimidine-4-carboxamide] here?
**A.** > 2960 nM
